Results as given in patent publication US8268531B2, “Photoacid generator compounds and compositions” (Cornell Research Foundation, Inc., priority 2008, dated 2012).

How the values were obtained:
[1] = Optical properties: absorptivity at 248 nm in acetonitrile; type: physicochemical; conditions: Measured in acetonitrile
Thermal properties (Td) = type: physicochemical; conditions: thermal property of the PAG

`O=S(=O)(O)C(F)(F)C(F)(F)OC(F)(F)C(F)(F)C1CC2CCC1C2` (centres unmarked) gave a ε248 [1] of 5220 cm^2 · mol^-1 and a Td (Thermal properties (Td)) of 164 °C.
For `O=S(=O)(O)C(F)(F)C(F)(F)CCCl`, the Td (Thermal properties (Td)) was 205 °C.
In the case of `O=S(=O)(O)C(F)(F)C(F)(F)C(F)(F)C(F)(F)F`, the ε248 [1] is reported as 4200 cm^2 · mol^-1.
`O=S(=O)(O)C(F)(F)C(F)(F)Oc1ccccc1` gave a ε248 [1] of 6015 cm^2 · mol^-1 and a Td (Thermal properties (Td)) of 190 °C.
With `O=C1CCC(CC(F)(F)C(F)(F)OC(F)(F)C(F)(F)S(=O)(=O)O)O1` (centres unmarked) the ε248 [1] was 5400 cm^2 · mol^-1 and the Td (Thermal properties (Td)) was 165 °C.
